Assay results as given in BindingDB's records for doi:10.1021/acs.jmedchem.9b01161 (Research Triangle Institute, 2019).

Experiments:
Cannabinoid receptor 1 [1] = molecular target: T1, Cannabinoid receptor 1 (Homo sapiens, UniProt P21554); assay: Allosteric modulator activity at human CB1 receptor expressed in HEK293 cell membranes assessed as suppression of 100 nM CP55,940-induced [35S]GTPgammaS binding incubated for 60 mins by scintillation counting method
Cannabinoid receptor 1 [2] = molecular target: T1, Cannabinoid receptor 1; assay: Allosteric modulator activity at human CB1 receptor expressed in CHO-RD-HGA16 cells co-expressing Galpha16 assessed as suppression of 100 nM CP55,940-induced calcium mobilization pre-incubated for 15 mins by Calcium 5 dye based FLIPR assay

T1 sequence (P21554 whole entry): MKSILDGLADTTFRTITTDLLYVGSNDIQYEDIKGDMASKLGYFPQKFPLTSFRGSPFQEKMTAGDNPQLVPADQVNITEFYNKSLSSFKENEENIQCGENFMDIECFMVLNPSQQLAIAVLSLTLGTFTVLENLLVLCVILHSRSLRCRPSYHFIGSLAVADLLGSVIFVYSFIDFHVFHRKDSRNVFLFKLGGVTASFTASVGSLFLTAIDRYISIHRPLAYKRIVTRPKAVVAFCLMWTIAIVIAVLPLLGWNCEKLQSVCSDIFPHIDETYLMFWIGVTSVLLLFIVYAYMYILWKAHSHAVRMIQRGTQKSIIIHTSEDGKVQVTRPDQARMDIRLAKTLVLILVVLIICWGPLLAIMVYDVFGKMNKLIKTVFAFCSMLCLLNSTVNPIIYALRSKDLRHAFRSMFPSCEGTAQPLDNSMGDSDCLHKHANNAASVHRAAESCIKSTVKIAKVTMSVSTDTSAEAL

IC50 (Cannabinoid receptor 1 [2]) | SMILES | IC50 (Cannabinoid receptor 1 [1])
– | COc1ccc(-c2cccc(N3CCCC3)n2)cc1NC(=O)Nc1ccc(Cl)cc1 | > 10 µM
> 10 µM | O=C(Nc1ccc(Cl)cc1)N[C@H]1C[C@H]1c1ccccc1 | > 10 µM
